Measurements taken from patent US20030224942A1, “Alkylamino-1,3,5-triazines, processes for their preparation and their use as herbicides and plant growth regulators” (priority 2001, published 2003).

Legend:
[1] = tested on: Chenopodium spp., Papaver spp., Polygonum spp., Veronica spp. or Viola spp.; assay: Post-emergence effect on weeds (greenhouse pot test, visual scoring); type: in vivo, monocotyledonous and dicotyledonous weeds; settings: treated at three-leaf stage; visual scoring after about 3 to 4 weeks; application rate of 0.5 kg and less of active substance per hectare
[2] = tested on: Cyperus spp., Echinochloa spp., Digitaria spp., Sagitaria spp. and Scirpus spp.; assay: Action on harmful plants in rice (paddy rice conditions, visual scoring); type: in vivo, typical rice weeds (gramineous and broad-leaved); settings: applied into the dammed water, visual scoring about three weeks after application
Source text: Transplanted and sown rice and also typical rice weeds (gramineous and broad-leaved) are cultivated in closed plastic pots in a greenhouse to the three-leaf stage (Echinochloa crus-galli 1.5-leaf) under paddy rice conditions (dammed height of water: 2-3 cm). This is followed by treatment with the compounds according to the invention. […] After this treatment, the test plants are set up in a greenhouse under optimum growth conditions and are maintained in this way throughout the test period.

| SMILES | herbicidal activity post-emergence against harmful plants [1] | herbicidal activity against harmful plants which are typical for rice crops [2] |
| --- | --- | --- |
| CC(F)C#Cc1cccc(C(C)Nc2nc(N)nc(C(C)(C)F)n2)c1 (stereo not shown) [Product P17.1597] | very good herbicidal activity | very good herbicidal activity |
| C#Cc1cccc(C(Nc2nc(N)nc(C(C)C)n2)C2CC2)c1 (stereo not shown) [Product P14.1579] | very good herbicidal activity | very good herbicidal activity |
| CC#Cc1cccc(C(Nc2nc(N)nc(C(C)F)n2)C2CC2)c1 (stereo not shown) [Product P24.1582] | very good herbicidal activity | very good herbicidal activity |
| C=C=Cc1c(F)cc(C(C)Nc2nc(N)nc(CC)n2)cc1F (stereo not shown) [Product P7.656] | very good herbicidal activity | very good herbicidal activity |
| C#Cc1ccc(C(C)Nc2nc(N)nc(C(C)(C)F)n2)cc1F (stereo not shown) [Product P17.1620] | very good herbicidal activity | very good herbicidal activity |
| Cc1nc(N)nc(NCc2cc(F)c(C(F)=C(F)F)c(F)c2)n1 [Product P1.49] | very good herbicidal activity | very good herbicidal activity |
| CCC(F)c1nc(N)nc(NC(C)c2ccc(C3CC3)cc2)n1 (stereo not shown) [Product P27.1604] | very good herbicidal activity | very good herbicidal activity |
| CCC(F)c1nc(N)nc(NC(C)c2ccc(C(F)=C(F)F)cc2)n1 (stereo not shown) [Product P27.1568] | very good herbicidal activity | very good herbicidal activity |
| CC(C)c1nc(N)nc(NC(c2cccc(C(F)=C(F)F)c2)C2CC2)n1 (stereo not shown) [Product P14.1567] | very good herbicidal activity | very good herbicidal activity |
| CC(C)c1nc(N)nc(NC(C)c2ccc(C(F)=C(F)F)cc2)n1 (stereo not shown) [Product P12.1568] | very good herbicidal activity | very good herbicidal activity |
| C#Cc1ccc(C(C)Nc2nc(N)nc(C(F)CC)n2)cc1 (stereo not shown) [Product P27.1580] | very good herbicidal activity | very good herbicidal activity |
| C#Cc1c(C)cc(C(C)Nc2nc(N)nc(CC)n2)cc1C (stereo not shown) [Product P7.348] | very good herbicidal activity | very good herbicidal activity |
| C#Cc1ccc(C(Nc2nc(N)nc(C(C)C)n2)C2CC2)cc1 (stereo not shown) [Product P14.1580] | very good herbicidal activity | very good herbicidal activity |
| CCc1nc(N)nc(NC(c2cccc(C3CC3)c2)C2CC2)n1 (stereo not shown) [Product P9.1603] | very good herbicidal activity | very good herbicidal activity |
| CC#Cc1cccc(C(C)Nc2nc(N)nc(CC)n2)c1 (stereo not shown) [Product P7.1582] | very good herbicidal activity | very good herbicidal activity |
| CCCCC#Cc1cc(C(C)Nc2nc(N)nc(C(C)(C)F)n2)ccc1F (stereo not shown) [Product P17.688] | very good herbicidal activity | very good herbicidal activity |
| C#Cc1ccc(C(C)Nc2nc(N)nc(CC)n2)cc1F (stereo not shown) [Product P7.1620] | very good herbicidal activity | very good herbicidal activity |
| CCC(F)c1nc(N)nc(NCc2ccc(F)c(C3CC3)c2)n1 (stereo not shown) [Product P26.916] | very good herbicidal activity | very good herbicidal activity |
| CC#Cc1ccc(C(Nc2nc(N)nc(C(C)C)n2)C2CC2)cc1 (stereo not shown) [Product P14.1583] | very good herbicidal activity | very good herbicidal activity |
| CC#Cc1cccc(C(Nc2nc(N)nc(C(C)(C)F)n2)C2CC2)c1 (stereo not shown) [Product P19.1582] | very good herbicidal activity | very good herbicidal activity |
| C#Cc1ccc(C(C)Nc2nc(N)nc(C(C)(C)F)n2)cc1 (stereo not shown) [Product P17.1580] | very good herbicidal activity | very good herbicidal activity |

| SMILES | herbicidal activity post-emergence against harmful plants [1] | herbicidal activity against harmful plants which are typical for rice crops [2] |
| --- | --- | --- |
| CCc1nc(N)nc(NC(c2ccc(C3CC3)cc2)C2CC2)n1 (stereo not shown) [Product P9.1604] | very good herbicidal activity | very good herbicidal activity |
| CC#Cc1c(F)cc(C(C)Nc2nc(N)nc(C(F)CC)n2)cc1F (stereo not shown) [Product P27.428] | very good herbicidal activity | very good herbicidal activity |
| CC(F)c1nc(N)nc(NC(C)c2ccc(C3CC3)cc2)n1 (stereo not shown) [Product P22.1604] | very good herbicidal activity | very good herbicidal activity |
| C#Cc1cccc(CNc2nc(C)nc(N)n2)c1 [Product P1.1579] | very good herbicidal activity | very good herbicidal activity |
| CC#Cc1c(F)cc(CNc2nc(N)nc(C(C)F)n2)cc1F (stereo not shown) [Product P21.428] | very good herbicidal activity | very good herbicidal activity |
| CCC(F)c1nc(N)nc(NC(C)c2cccc(C#CC(C)O)c2)n1 (stereo not shown) [Product P27.1600] | very good herbicidal activity | very good herbicidal activity |
| Cc1nc(N)nc(NC(c2cc(F)c(C(F)=C(F)F)c(F)c2)C2CC2)n1 (stereo not shown) [Product P4.49] | very good herbicidal activity | very good herbicidal activity |
| CCC(F)c1nc(N)nc(NC(C)c2ccc(F)c(C3CC3)c2)n1 (stereo not shown) [Product P27.916] | very good herbicidal activity | very good herbicidal activity |
| C#Cc1c(F)cc(CNc2nc(N)nc(CC)n2)cc1F [Product P6.352] | very good herbicidal activity | very good herbicidal activity |
| CC#Cc1cc(C(C)Nc2nc(C)nc(N)n2)ccc1F (stereo not shown) [Product P2.384] | very good herbicidal activity | very good herbicidal activity |
| C#Cc1ccc(C(C)Nc2nc(N)nc(C(C)(C)F)n2)cc1C#C (stereo not shown) [Product P17.358] | very good herbicidal activity | very good herbicidal activity |
| CC#Cc1c(F)cc(C(Nc2nc(C)nc(N)n2)C2CC2)cc1F (stereo not shown) [Product P4.428] | very good herbicidal activity | very good herbicidal activity |
| CCC(F)c1nc(N)nc(NCc2ccc(C3CC3)cc2)n1 (stereo not shown) [Product P26.1604] | very good herbicidal activity | very good herbicidal activity |
| CC(C)(F)c1nc(N)nc(NCc2cc(F)c(C3CC3)c(F)c2)n1 [Product P16.960] | very good herbicidal activity | very good herbicidal activity |
| CC(C)(F)c1nc(N)nc(NCc2ccc(F)c(C(F)=C(F)F)c2)n1 [Product P16.5] | very good herbicidal activity | very good herbicidal activity |
| C#Cc1cccc(CNc2nc(N)nc(C(C)C)n2)c1 [Product P11.1579] | very good herbicidal activity | very good herbicidal activity |
| CC(O)C#Cc1cc(C(C)Nc2nc(N)nc(C(C)F)n2)ccc1F (stereo not shown) [Product P22.840] | very good herbicidal activity | very good herbicidal activity |
| CCC(F)c1nc(N)nc(NCc2cc(F)c(C3CC3)c(F)c2)n1 (stereo not shown) [Product P26.960] | very good herbicidal activity | very good herbicidal activity |
| CC(F)c1nc(N)nc(NCc2cccc(C(F)=C(F)F)c2)n1 (stereo not shown) [Product P21.1567] | very good herbicidal activity | very good herbicidal activity |
| C#Cc1c(F)cc(CNc2nc(C)nc(N)n2)cc1F [Product P1.352] | very good herbicidal activity | very good herbicidal activity |
